The record followed here is PubChem BioAssay (NCI).

Some test systems named below: 786-0 renal; HCC-2998 colon; MDA-N; IGROV1 ovarian; RXF 393 renal; MDA-MB-435; SNB-75 CNS; OVCAR-3 ovarian; SF-295 CNS; SF-268 CNS; SK-OV-3 ovarian.
What all share (assay): NCI anticancer screen, dose series, 48 h

Values joined by “and” are separate entries in the source; they are usually repeats but may differ in a detail not shown here. Equal values may be shown once.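 Five concentrations, 48 hours, 96-well plates. The concentration for 50% growth inhibition is given as GI50. TGI is the concentration that stops growth completely.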

With `CCOc1cc(NC(C)=O)ccc1C(=O)NN1C(=O)C(Cl)C1c1ccc(O)c(OC)c1` (stereo not given), the TGI with 786-0 renal came to 26 µM; in the experiment with HCC-2998 colon, 32.2 µM; in the experiment with MDA-N, 31.9 µM; with IGROV1 ovarian, 28.2 µM; in the experiment on RXF 393 renal it was 29.2 µM; in the experiment on MDA-MB-435, 29.8 µM. Further, the TGI amounted to 24.1 µM in the experiment on SNB-75 CNS; 38.5 µM in the experiment on OVCAR-3 ovarian; 39.1 µM with SF-295 CNS; 35.9 µM with SF-268 CNS; 33.6 µM with SK-OV-3 ovarian.
`CCOC(=O)C(C)c1nc2cc(F)c(N3CCOCC3)cc2[nH]c1=O` (stereo not given): the TGI in the experiment on 786-0 renal, with HCC-2998 colon, with MDA-N, in the experiment on IGROV1 ovarian, in the experiment with RXF 393 renal and in the experiment with MDA-MB-435 was greater than 100 µM in each case. The TGI in the experiment with SNB-75 CNS, with OVCAR-3 ovarian, with SF-295 CNS, with SF-268 CNS and in the experiment with SK-OV-3 ovarian was greater than 100 µM each time.
Consider `N#CCN(Cc1ccccc1)[C@H]1CCC[C@]1(O)/C=C/c1ccc2c(c1)OCO2`, for which the TGI in the experiment with 786-0 renal was found to be 31.4 µM; in the experiment on HCC-2998 colon, 33.4 µM; in the experiment with MDA-N, 35.7 µM; in the experiment on IGROV1 ovarian, 92.2 µM; in the experiment on RXF 393 renal it was 77.3 µM; in the experiment with MDA-MB-435, 53.2 µM. Moreover, the TGI is greater than 100 µM in the experiment on SNB-75 CNS; 57.6 µM in the experiment with OVCAR-3 ovarian; 31.4 µM with SF-295 CNS; greater than 100 µM in the experiment with SF-268 CNS; greater than 100 µM with SK-OV-3 ovarian.
With `COc1ccc(/C=C/C(=O)c2cccc(C(=O)/C=C/c3ccc(OC)c(OC)c3)n2)cc1OC`, the TGI in the experiment with 786-0 renal was 27.5 µM; with HCC-2998 colon, greater than 100 µM; in the experiment on MDA-N it was 34.8 µM; with IGROV1 ovarian, greater than 95.5 µM; with RXF 393 renal, greater than 86.1 µM; in the experiment on MDA-MB-435, greater than 100 µM. In addition, the TGI is greater than 100 µM with SNB-75 CNS; greater than 100 µM in the experiment with OVCAR-3 ovarian; greater than 100 µM in the experiment with SF-295 CNS; greater than 89.3 µM in the experiment with SF-268 CNS; greater than 100 µM in the experiment with SK-OV-3 ovarian.
Regarding `c1ccc2nc3c(nc2c1)sc1nc2ccccc2n13`, the TGI in the experiment on 786-0 renal, in the experiment on HCC-2998 colon, with MDA-N, with IGROV1 ovarian, with RXF 393 renal and with MDA-MB-435 was greater than 100 µM each time. Further, the TGI with SNB-75 CNS, in the experiment on OVCAR-3 ovarian, with SF-295 CNS, in the experiment on SF-268 CNS and in the experiment on SK-OV-3 ovarian was greater than 100 µM throughout.
For the molecule `NS(=O)(=O)c1ccc(NC(=S)/N=C/c2c(O)c3ccccc3[nH]c2=O)cc1`, the TGI with 786-0 renal, in the experiment on HCC-2998 colon, in the experiment with MDA-N, in the experiment with IGROV1 ovarian, in the experiment with RXF 393 renal and in the experiment on MDA-MB-435 was greater than 100 µM in each case. Further, the TGI in the experiment with SNB-75 CNS, with OVCAR-3 ovarian, in the experiment on SF-295 CNS, with SF-268 CNS and in the experiment with SK-OV-3 ovarian was greater than 100 µM in each case.
As for `O=C1c2scc(-c3ccc(F)cc3)c2-n2cccc21`, the TGI with 786-0 renal is 68.6 µM; with HCC-2998 colon, 91.1 µM; in the experiment with MDA-N, 28.8 µM; in the experiment with IGROV1 ovarian, greater than 100 µM; in the experiment on RXF 393 renal, greater than 100 µM; in the experiment on MDA-MB-435, 31.4 µM. For the same molecule, the TGI was 45.2 µM with SNB-75 CNS; greater than 100 µM in the experiment on OVCAR-3 ovarian; greater than 100 µM with SF-295 CNS; greater than 100 µM with SF-268 CNS; greater than 100 µM with SK-OV-3 ovarian.
As for `CC[C@@]1(O)C(=O)OCc2c1cc1n(c2=O)Cc2c-1nc1ccccc1c2C=Nc1ccc(N[C@@H]2c3cc4c(cc3[C@@H](c3cc(OC)c(O)c(OC)c3)[C@H]3C(=O)OC[C@@H]32)OCO4)cc1`, the TGI in the experiment with 786-0 renal is 0.329 µM; in the experiment on MDA-N it was 27.6 µM and 3.4 µM; in the experiment on RXF 393 renal, 2.25 µM and 0.546 µM; in the experiment with MDA-MB-435, 12.5 µM and > 100 µM; in the experiment on OVCAR-3 ovarian, 6.01 µM and 0.74 µM; with SF-295 CNS, 8.02 µM and 15.9 µM. The results for the TGI in the experiment with SF-268 CNS and in the experiment with SK-OV-3 ovarian were greater than 100 µM and 9.93 µM, respectively. For the same molecule, the GI50 in the experiment on HCC-2998 colon was 0.369 µM and 0.131 µM; in the experiment on MDA-N it was 0.351 µM and 0.0613 µM; in the experiment on IGROV1 ovarian, 0.274 µM and 0.132 µM; in the experiment with RXF 393 renal, 0.127 µM and 0.0526 µM; in the experiment with MDA-MB-435, 0.295 µM and 0.188 µM; in the experiment on SNB-75 CNS, 0.0498 µM and < 0.0169 µM. The GI50 was 0.557 µM and 0.185 µM with OVCAR-3 ovarian; 0.0619 µM and 0.0503 µM in the experiment with SF-295 CNS; 0.668 µM and 0.141 µM in the experiment on SK-OV-3 ovarian.
Take `CCOC(=O)NC(OCCN(C)C)(C(F)(F)F)C(F)(F)F`: the TGI in the experiment with 786-0 renal, in the experiment with HCC-2998 colon, in the experiment with MDA-N, with IGROV1 ovarian, in the experiment on RXF 393 renal and in the experiment with MDA-MB-435 was greater than 100 µM each time. Also, the TGI in the experiment with SNB-75 CNS, with OVCAR-3 ovarian, with SF-295 CNS, in the experiment with SF-268 CNS and in the experiment with SK-OV-3 ovarian was greater than 100 µM each time.
As for `COc1ccc(-c2c(C#N)c(N)n(C3OCC(O)C(O)C3O)c(=S)c2C#N)cc1` (stereo not given), the TGI in the experiment with 786-0 renal, in the experiment on HCC-2998 colon, in the experiment with MDA-N, in the experiment with IGROV1 ovarian, in the experiment with RXF 393 renal and with MDA-MB-435 was greater than 100 µM in each case. Also, the TGI in the experiment with SNB-75 CNS, in the experiment on OVCAR-3 ovarian, in the experiment with SF-295 CNS, in the experiment with SF-268 CNS and in the experiment on SK-OV-3 ovarian was greater than 100 µM in each case.
Consider `COc1ccc(-c2cc(-c3ccccc3)c3c(n2)-c2ccccc2NC(=O)C3)cc1`, for which the TGI was greater than 100 µM in the experiment with 786-0 renal; greater than 100 µM in the experiment on HCC-2998 colon; greater than 100 µM in the experiment on MDA-N; 52.6 µM with IGROV1 ovarian; greater than 100 µM with RXF 393 renal; greater than 100 µM in the experiment with MDA-MB-435. In addition, the TGI is 37.8 µM in the experiment on SNB-75 CNS; greater than 100 µM in the experiment on OVCAR-3 ovarian; greater than 100 µM in the experiment with SF-295 CNS; greater than 100 µM in the experiment with SF-268 CNS; greater than 100 µM with SK-OV-3 ovarian.
For `Cc1cccc(/C=N/NC(=S)NC2CCCCC2)n1`, the TGI in the experiment with 786-0 renal is 98.3 µM; in the experiment on HCC-2998 colon it was greater than 89.5 µM; with MDA-N, greater than 93.1 µM; in the experiment with IGROV1 ovarian, greater than 100 µM; with RXF 393 renal, 76.1 µM; in the experiment with MDA-MB-435, greater than 100 µM. Further, the TGI in the experiment on SNB-75 CNS was greater than 100 µM; with OVCAR-3 ovarian it was greater than 29.3 µM; in the experiment on SF-295 CNS it was greater than 100 µM; with SF-268 CNS, greater than 100 µM; in the experiment with SK-OV-3 ovarian, greater than 100 µM.
Turning to `CC(=O)O[C@H]1CC[C@@]2(C)C(=CC[C@H]3[C@@H]4C[C@H](N5CCN(C)CC5)[C@H](OC(C)=O)[C@@]4(C)CC[C@@H]32)C1`, the TGI in the experiment on 786-0 renal is 35.3 µM; in the experiment on HCC-2998 colon it was 30.1 µM; in the experiment with MDA-N it was 26.5 µM; in the experiment on IGROV1 ovarian, 37.9 µM; in the experiment with RXF 393 renal it was 40.3 µM; in the experiment with MDA-MB-435, 19.2 µM. The TGI with SNB-75 CNS is 62.6 µM; in the experiment on OVCAR-3 ovarian it was 21.5 µM; in the experiment on SF-295 CNS, 45.7 µM; with SF-268 CNS, 42.7 µM; in the experiment with SK-OV-3 ovarian, greater than 65.8 µM.
Take `COC(=O)/C=C/COCC1C2CCC(=O)C21` (stereo not given): the TGI in the experiment on 786-0 renal, in the experiment with HCC-2998 colon, in the experiment on MDA-N, with IGROV1 ovarian, with RXF 393 renal and in the experiment on MDA-MB-435 was greater than 100 µM in each case. The TGI with SNB-75 CNS, in the experiment on OVCAR-3 ovarian, with SF-295 CNS, in the experiment with SF-268 CNS and in the experiment with SK-OV-3 ovarian was greater than 100 µM throughout.
